One experiment concerns LN229 MGMT+ shMLH1 cells. Put plainly: Short-term viability assay, LN229 MGMT+ shMLH1. It is filed as cell-based. The conditions noted are these: Homo sapiens, LN-229, Table III, read-out: IC50 against LN229 cell lines, MGMT MMR−. How it is done:
(§1) The activity of KL-50 in MGMT-LN229 cells engineered to lack expression of other key MMR proteins including MSH6, MLH1, PMS2, and MSH3 was also confirmed. Western blotting was performed in LN229 MGMT+/−cells with stable expression of shRNA targeting MSH6, MLH1, PMS2, or MSH3 to confirm depletion of the shRNA targets. In shMSH6 cells, there was reduced expression of MSH2, and in shMLH1 cells, there was loss of PMS2, due to destabilization in the setting of loss of their heterodimeric partners. GAPDH serves as loading control. […] Short-term viability assay curves for KL-50 in LN229 MGMT+/−, MMR+/shMSH6 cells. […] Short-term viability assay curves for KL-50 in LN229 MGMT+/−, MMR+/shMLH1 cells. […] Short-term viability assay curves for KL-50 in LN229 MGMT+/−, MMR+/shPMS2 cells. […] Short-term viability assay curves for KL-50 in LN229 MGMT+/−, MMR+/shMSH3 cells.
MMR Protein shRNA Knockdown. pGIPZ lentiviral shRNA vectors targeting MSH2, MSH6, MLH1, PMS2, and MSH3 were purchased from Horizon Discovery (Table IV). […]
Short-term Cell Viability Assay. […] Cells were imaged on a Cytation 3 imaging reader (BioTek) and quantified using CellProfiler software. For in vitro short-term growth delay experiments, IC50 values were determined from the nonlinear regression equation, [inhibitor] vs normalized response with variable slope.

In another experiment the test system is LN229 MGMT− shPMS2 cells. Put plainly: Short-term viability assay, LN229 MGMT- shPMS2. It counts as cell-based, human. Conditions: for IC50: Homo sapiens, LN-229, Table III, read-out: IC50 against LN229 cell lines, MGMT− MMR−; for MGMT− RI: Table III. How it is done: as §1
MMR Protein shRNA Knockdown. pGIPZ lentiviral shRNA vectors targeting MSH2, MSH6, MLH1, PMS2, and MSH3 were purchased from Horizon Discovery (Table IV). Lentiviral particles were produced in HEK293T cells via co-transfection with lentiviral shRNA plasmid, pCMV-VSV-G envelope plasmid (Addgene, #8454) and psPAX2 packaging plasmid (Addgene, #12260), using Lipofectamine 3000 Reagent (Invitrogen, L3000001) per manufacturer's protocol. Viral particles were harvested 48 h post-transfection and used to transduce LN229 MGMT+/−cells in the presence of 8 μg/mL polybrene. Selection of pooled cells with lentiviral expression was established with 1 μg/mL puromycin 48 h post-transduction for 3 to 4 days. Single cell cloning was performed by limiting dilution and protein knockdown was confirmed by western blotting.
Short-term Cell Viability Assay. Cells were seeded in 96-well plates at 1000 or 2000 cells/well and allowed to adhere at 23° C. for 60 min and then incubated overnight at 37° C. Cells were treated with indicated concentrations of compounds in triplicate for 4-6 days prior to fixation with 3.7% paraformaldehyde and nuclear staining with 1 μg/mL Hoechst 33342 dye. Cells were imaged on a Cytation 3 imaging reader (BioTek) and quantified using CellProfiler software. For in vitro short-term growth delay experiments, IC50 values were determined from the nonlinear regression equation, [inhibitor] vs normalized response with variable slope.

The subject of experiment [1] is FANCD2 ubiquitination in LN229 MGMT+/−, MMR+/− cells. Put plainly: Western blot analysis of FANCD2 ubiquitination. It is filed as cell-based, human. From the text:
FIGS. 8A-8K. (FIG. 8A) Change in percent cells with 1 micronuclei from baseline (DMSO control) after treatment as in FIGS. 5A and 5C. Columns, mean; error bars, SD; n>15 technical replicates; **** p<0.0001; ns, not significant. (FIG. 8B) Short-term viability assay curves for KL-50 in PD20 cells, deficient in FANCD2 (FANCD2−/−) or complemented with FANCD2 (+FANCD2). (FIG. 8C) Short-term viability assay curves for KL-50 in PEO4 (BRCA2+) and PEO1 (BRCA2−/−) cells pre-treated with 0.01% DMSO control or 10 μM O^6BG (+O^6BG) for 1 h prior to KL-50 addition. (FIG. 8D) Short-term viability assay curves for KL-50 in DLD1 BRCA2+/− and BRCA2−/−cells pre-treated with 0.01% DMSO control or 10 μM O^6BG (+O^6BG) for 1 h prior to KL-50 addition. For FIGS. 8B-8D, points, mean; error bars, SD; n=3 technical replicates. […] (FIG. 8E) Validation of micronuclei identification using olaparib as positive control. Change in percent cells with 1 micronuclei from baseline (DMSO control) after treatment with olaparib (10 μM) for 48 h in LN229 MGMT+/−, MMR+/−cells. Columns, mean; error bars, SD; n>15 technical replicates; **** p<0.0001. […] The % FANCD2 ubiquitination (% FANCD2 Ub) is quantified as the background-corrected integrated band intensity of the upper band divided by the sum of the background-corrected integrated band intensities of the upper and lower bands. […]

Experiment [2] deals with LN229 MGMT−/MMR− intracranial tumors. The experiment in a line: Orthotopic intracranial LN229 MGMT-/MMR- model. It counts as in vivo, mouse. Conditions: 25 mg/kg IP M-F x 1 week as printed. The text has this: FIGS. 10A-10G. KL-50 is efficacious in an LN229 MGMT−/MMR− intracranial model and is well tolerated with limited myelosuppression at supratherapeutic doses. […] (FIG. 10B) Mean body change with SEM of mice during maximum tolerated dose experiment in non-tumor bearing mice. (FIGS. 10C-10G) Complete blood counts for mice pre-treatment and 7 days post-treatment with escalations of single dose KL-50 delivered PO. WBC lower limit of normal (LLN): 2.2 K/L; Neutrophils LLN: 0.42 K/L; Lymphocyte LLN: 1.7 K/L; RBC LLN: 3.47 M/L; Platelet LLN: 155 K/L. *, P<0.05; ****, P<0.0001.
Mouse Protocol for Intracranial Study. LN229 MGMT−/MMR− cells stably expressing firefly luciferase (lentivirus-plasmids from Cellomics Technology; PLV-10003), were injected intracranially using a stereotactic injector. Briefly, 1.5 million cells in […] PBS were injected into the brain and the mice were imaged weekly using the IVIS Spectrum In Vivo Imaging System (PerkinElmer) according to the manufacturer's protocol. Images were taken on a weekly basis and acquired 10 min post intraperitoneal injection with d-luciferin (150 mg/kg of animal mass). […] Quantification of BLI flux (photons/see) was made through the identification of a region of interest (ROI) for each tumor.

These results are taken from patent US20240294478A1, “ANTI-CANCER COMPOUNDS AND METHODS OF USE” (YALE UNIVERSITY, priority 2021, published 2024).

As usually defined, the IC50 is the point on the concentration scale where inhibition reaches its midpoint.

Turning to `NC(=O)c1ncn2c(=O)n(CCF)nnc12` [KL-50], the IC50 in the experiment with LN229 MGMT+ shMLH1 cells worked out at 252 ± 28 µM; with LN229 MGMT− shPMS2 cells it was 5.4 ± 0.3 µM. Moreover, in the experiment on LN229 MGMT− shPMS2 cells, the “MGMT− RI” value is given as 0.4. For the same molecule, the FANCD2 ubiquitination entry in experiment [1] is listed as “observed specifically in MGMT-cells”. For the same molecule, the “intracranial tumor growth (BLI)” value in experiment [2] is “effective”.

With `Cn1nnc2c(C(N)=O)ncn2c1=O` [TMZ, 4-methyl-5-oxo-2,3,4,6,8-pentazabicyclo[4.3.0]nona-2,7,9-triene-9-carboxamide, reference compound], the IC50 with LN229 MGMT+ shMLH1 cells stood at 769 ± 100 µM. Also, in the experiment on LN229 MGMT− shPMS2 cells, the IC50 was 921 ± 190 µM and the “MGMT− RI” value is given as 181. For the same molecule, the FANCD2 ubiquitination entry in experiment [1] is on record as “only in MGMT−/MMR+cells”. Further, in experiment [2], the “intracranial tumor growth (BLI)” value was “only transiently suppressed tumor growth”.
